Here are results for 1 substance from patent publication US20250241906A1, “ANABOLIC DRUGS STIMULATING TYPE II COLLAGEN PRODUCTION FROM CHONDROCYTES OR THEIR PROGENITORS” (UNIVERSITY OF CENTRAL FLORIDA RESEARCH FOUNDATION, INC., priority 2022, published 2025).

“Also recorded” adds a separate entry of the source. Like-named read-outs stand apart in the source and are kept apart here.

In data set [1] the test system is type II collagen promoter (COL2A1-Gaussia luciferase) in primary human chondrocytes. Kind of data set: HuCol2gLuc 3D aggregate type II collagen promoter-driven Gaussia luciferase assay. To be noted: for stimulation of type II collagen production in the screen of natural products: NCI Natural Products Set V, 5 μM continuously, 22-day assay; for cumulative luminescence: validation. It counts as cell-based.

The test system of data set [2] is HuCol2gLuc aggregates. Kind of data set: Biochemical assays (DNA, GAG, total collagen) on HuCol2gLuc aggregates. It counts as cell-based, human. The protocol: Biochemical Assays. Aggregates frozen at day 22, were thawed with PBS, and digested with Papain (25 μg/ml, Sigma, P4762, in 2 mM cysteine; 50 mM sodium phosphate; 2 mM EDTA at a pH 6.5, 100 μl) at 65° C. overnight. Plates were sealed with a qPCR adhesive sealing film (USA Scientific), a silicone sheet, and steel plates clamped to the plate to prevent evaporation during digestion. Half of the digest (50 μl) was transferred to another plate and frozen for hydroxyproline assessment. In the remaining digest, papain was inactivated with 0.1M sodium hydroxide (NaOH, 50 μl) followed by NaOH neutralization (100 mM Na2HPO4, 0.1 N HCL, pH 1.82, 50 μl). To quantitate DNA content, samples of the neutralized digest (20 μl) were combined with buffered Hoechst dye (#33258, 667 ng/ml, phosphate buffer pH 8, 100 μl) and fluorescence measured at an excitation of 365 nm and emission of 460 nm. For GAG assessment, 1,9-Dimethyl-methylene blue solution (195 μl) was added to neutralized digests (5 μl) and absorbance measured at 595 nm and 525 nm. Readings were corrected by subtracting 595 nm reading from 525 nm. Micrograms of DNA and GAG were calculated using a Calf thymus DNA standard (Sigma) or Chondroitin Sulfate standard (Seikagaku Corp.), respectively.
For hydroxyproline (HP) quantification, the frozen digests (50 μl) were thawed at room temperature and incubated overnight at 105° C. with 6M hydrochloric acid (200 μl). Plates were sealed to prevent evaporation. Samples were then dried at 70° C. overnight with a hydroxyproline standard (Sigma). Copper sulfate (0.15 M, 10 μl) and NaOH (2.5 M, 10 μl) were added to each well and incubated at 50° C. for 5 minutes, followed by hydrogen peroxide (6%, 10 μl) for 10 minutes. Sulfuric acid (1.5 M, 40 μl) and Ehrlich's reagent (20 μl) were added and samples incubated at 70° C. for 15 minutes. Absorbance was measured at 505 nm. Micrograms of hydroxyproline were calculated using the standard. Total collagen was calculated by the following formula (μg of HP×7.6=μg Total Collagen).

Data set [3] concerns HuCol2gLuc aggregates. Nature of the data set: Metabolic assay (resazurin) on HuCol2gLuc aggregates. It counts as cell-based, human. To be noted: day 22. How it is done: Metabolic Assay (Resazurin). Metabolic activity was assessed on day 22 by adding resazurin to a final concentration of 50 μM to each well and incubating at physioxia for 3 hours. After three hours, media (120 μl) was transferred to a 96-well black plate (Greinerbio) and fluorescence read at an excitation of 535 nm and emission at 588 nm. At OT-2 (Opentrons) python-coded robotic pipette was used to add resazurin to cell plates as well as to transfer medium to black plates.
In general terms: The colour change of resazurin is a common sign of viable cells or microbes.

Data set [4] relates to kinase phosphorylation in primary human chondrocytes. Kind of data set: Phospho-kinase array on primary human chondrocyte lysate. Format: cell-based. To be noted: donor 2, 24 h, vs DMSO. How it is done: Phospho-kinase Array. Primary human chondrocytes were seeded at 5×10^6 cells (2×10 cm adherent dish, Corning) in growth media and allowed to adhere overnight. Growth media was replaced with chondrogenic media supplemented with 1 ng/mL TGFβ1 with DMSO or with drug […]. Cells were treated for 24 h before processing according to the manufacturer's protocol (ARY003C, R&D Systems). This phospho-kinase array contains capture antibodies to measure relative levels of phosphorylation of 37 kinases on a nitrocellulose membrane. Signal intensity was quantified using ImageJ.

In another data set the target is butyrylcholinesterase (Homo sapiens, UniProt P06276). To be noted: cited from earlier work.
Sequence of butyrylcholinesterase (P06276 29-602): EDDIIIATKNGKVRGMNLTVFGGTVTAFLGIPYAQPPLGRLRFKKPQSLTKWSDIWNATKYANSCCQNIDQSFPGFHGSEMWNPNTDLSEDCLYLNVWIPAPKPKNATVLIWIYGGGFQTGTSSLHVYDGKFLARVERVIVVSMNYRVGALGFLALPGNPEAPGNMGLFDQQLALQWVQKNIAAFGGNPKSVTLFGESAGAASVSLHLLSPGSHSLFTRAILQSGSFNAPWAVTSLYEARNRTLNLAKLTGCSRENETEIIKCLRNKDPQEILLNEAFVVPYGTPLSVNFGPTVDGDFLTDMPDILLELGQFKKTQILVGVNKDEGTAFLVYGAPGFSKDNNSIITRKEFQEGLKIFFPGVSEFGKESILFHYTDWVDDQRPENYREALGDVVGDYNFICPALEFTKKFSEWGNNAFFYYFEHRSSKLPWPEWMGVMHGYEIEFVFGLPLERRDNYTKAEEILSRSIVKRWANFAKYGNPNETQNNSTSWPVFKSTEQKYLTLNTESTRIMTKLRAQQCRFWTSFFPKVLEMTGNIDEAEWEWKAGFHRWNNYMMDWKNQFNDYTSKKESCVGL
Another data set has as its system Plasmodium falciparum. To be noted: cited from earlier work.
For a further data set, the system named is KB cell line. To be noted: cited from earlier work.

With Promoline [Drug 84], the “stimulation of type II collagen production in the screen of natural products” value in data set [1] (listed as 84) is recorded as “stimulatory effects; also recorded: stimulatory throughout the experiment”; in data set [1] (listed as Promoline) it was “stimulate type II collagen”. Also, the EC50 in data set [1] (cumulative luminescence over 22 days) turned out to be 3070 nM; in data set [1] (day 3, 0-10 μM, read-out: EC50 type II collagen driven-luminescence), 2460 nM; in data set [1] (day 10, 0-10 μM, read-out: EC50 type II collagen driven-luminescence) it was 2580 nM. Further, the “stimulation of type II collagen production during the early stages” value in data set [1] (natural product screen, day 8 volcano plot) is “stimulate type II collagen production during the early stages”. Moreover, the “day 22 luminescence normalized to DMSO vehicle control” value in data set [1] (screen, 5 μM, 1 ng/ml TGF-β1) was “significant increase in luminescence”. In addition, the “trend of luminescence over 22 days normalized to DMSO” value in data set [1] (screen, 5 μM, 1 ng/ml TGF-β1) was “increase over the control as early as day 3 with a sustained increase in expression over 22 days”. Moreover, the cumulative luminescence result in data set [1] (donor 1) is given as “no significant effect”; in data set [1] (donor 2), “significant increase”. For the same substance, the “glycosaminoglycan (GAG) content” value in the data set on HuCol2gLuc aggregates [2] (day 22, donor 1) is “not statistically significant”; in the data set on HuCol2gLuc aggregates [2] (day 22, donor 2, untreated 15 μg) it was “decrease in GAG content”. In addition, the total collagen entry in the data set with HuCol2gLuc aggregates [2] (day 22, donor 1) is “no observable effect”; with HuCol2gLuc aggregates [2] (day 22, donor 2, untreated ~14 μg), about 21 µg. The DNA content result in the data set on HuCol2gLuc aggregates [2] (day 22, donor 2, vs untreated) is “no change in DNA content”; in the data set with HuCol2gLuc aggregates [2] (day 22, 10 μM) it was “significant decrease”. Moreover, in the data set with HuCol2gLuc aggregates [3] (10 μM), the cytotoxicity result is “cytotoxicity”. Further, in the data set on HuCol2gLuc aggregates [3] (0-10 μM), the “resazurin fluorescence (metabolic activity)” value is listed as “dose dependent decrease”. In data set [4], the “AKT 1/2/3 phosphorylation at T308 and S473” value was “substantial decrease”. Also, the “p53 S15, STAT3 Y705 phosphorylation and HSP 60” value in data set [4] was “less considerable decrease”. Besides, the “phosphorylation of CREB, EGFR, and eNOS” value in data set [4] is “modest increase”. Moreover, on butyrylcholinesterase, the inhibition of butyrylcholinesterase entry is listed as “potent inhibitor”. Besides, in the data set on Plasmodium falciparum, the “anti-microbial activity against Plasmodium falciparum” value is “weak anti-microbial activity”. For the same substance, the “cytotoxicity in the KB cell line” value with KB cell line is “low cytotoxicity”.

By EC50 is commonly meant the concentration at which the effect is half-maximal.
